Patent US4296112A, “Cephalosporins” (Mitsui Toatsu Chemicals, Inc., priority 1979, dated 1981)

Legend:
[1] = system: Bacillus cereus (IAM 1792); test: MIC, agar plate dilution (Referential Example 1, Table 1); assay type: cell-based; conditions: IAM1792, HIA medium plate, 37° C., 18 hours, read-out: Minimum growth inhibitory concentration (MIC)
Method: (§1) The antibacterial activities of the cephalosporins of this invention were measured using the sodium salts of the compounds obtained in Synthesis Examples 1 and 2. The procedure and the results are shown in Referential Example 1.
(§2) Carbenicillin sodium salt (CB-PC) and cephazoline sodum salt (CEZ) were used as controls.
(§3) The antibacterial activities of the test compounds against various Gram-positive and Gram-negative bacteria were determined in a customary manner by the minimum growth inhibitory concentration method (MIC method).
(§4) The experimental procedure was as follows:
(§5) A commercially available heart infusion agar medium (to be abbreviated HIA medium) was used as an assay medium, and a commercially available trypto-soy bouillon medium (to be abbreviated TSB) was used as a medium for the growth of test bacterial strains.
(§6) The test compound was diluted with the melted HIA medium to 100 μg/ml as a maximum concentration, and then serially diluted double. The dilutions were poured into sterilized Petri dishes respectively and allowed to cool and solidify to prepare plates containing the test compound.
(§7) The test bacterial strain was cultivated at 37° C. for 18 to 24 hours in the TSB medium. The culture broth was diluted to 50 to 500 times with a freshly prepared TSB culture medium, and one platinum loopful of the dilution was inoculated in each of the plates containing the test compound.

[2] = system: Citrobacter freundii (F-34); test: as above; assay type: cell-based; conditions: HIA medium plate, 37° C., 18 hours, read-out: Minimum growth inhibitory concentration (MIC)
Method: as §1, §2, §3, §4, §5, §6, §7

[3] = system: Enterobacter aerogenes (IFO 3320); test: as above; assay type: cell-based; conditions: Klebsiella aerogenes, IFO3320; HIA medium plate, 37° C., 18 hours; read-out: Minimum growth inhibitory concentration (MIC)
Method: as §1, §2, §3, §4, §5, §6, §7

[4] = system: Enterobacter cloacae (D-49); test: as above; assay type: cell-based; conditions: HIA medium plate, 37° C., 18 hours, read-out: Minimum growth inhibitory concentration (MIC)
Method: as §1, §2, §3, §4, §5, §6, §7

[5] = system: Escherichia coli (14H114); test: as above; assay type: cell-based; conditions: HIA medium plate, 37° C., 18 hours, read-out: Minimum growth inhibitory concentration (MIC)
Method: as §1, §2, §3, §4, §5, §6, §7

Escherichia coli (26RO3) = test: as above; assay type: cell-based; conditions: HIA medium plate, 37° C., 18 hours, read-out: Minimum growth inhibitory concentration (MIC)
Method: as §1, §2, §3, §4, §5, §6, §7

Escherichia coli (K-12) = test: as above; assay type: cell-based; conditions: HIA medium plate, 37° C., 18 hours, read-out: Minimum growth inhibitory concentration (MIC)
Method: as §1, §2, §3, §4, §5, §6, §7

Escherichia coli (NIHJ) = test: as above; assay type: cell-based; conditions: HIA medium plate, 37° C., 18 hours, read-out: Minimum growth inhibitory concentration (MIC)
Method: as §1, §2, §3, §4, §5, §6, §7

[6] = system: Klebsiella pneumonia (F-5089); test: as above; assay type: cell-based; conditions: Klebsiella pneumoniae; HIA medium plate, 37° C., 18 hours; read-out: Minimum growth inhibitory concentration (MIC)
Method: as §1, §2, §3, §4, §5, §6, §7

[7] = system: Klebsiella pneumoniae (ATCC 10031); test: as above; assay type: cell-based; conditions: ATCC10031, 18 h, read-out: Minimum growth inhibitory concentration (MIC)
Method: as §1, §2, §3, §4, §5, §6, §7

[8] = system: Klebsiella pneumoniae (B-172); test: as above; assay type: cell-based; conditions: HIA medium plate, 37° C., 18 hours, read-out: Minimum growth inhibitory concentration (MIC)
Method: as §1, §2, §3, §4, §5, §6, §7

[9] = system: Klebsiella pneumoniae (Horino); test: as above; assay type: cell-based; conditions: HIA medium plate, 37° C., 18 hours, read-out: Minimum growth inhibitory concentration (MIC)
Method: as §1, §2, §3, §4, §5, §6, §7

Proteus morganii (C-39) = test: as above; assay type: cell-based; conditions: Morganella morganii; HIA medium plate, 37° C., 18 hours; read-out: Minimum growth inhibitory concentration (MIC)
Method: as §1, §2, §3, §4, §5, §6, §7

Proteus rettgeri (T-2) = test: as above; assay type: cell-based; conditions: Providencia rettgeri; HIA medium plate, 37° C., 18 hours; read-out: Minimum growth inhibitory concentration (MIC)
Method: as §1, §2, §3, §4, §5, §6, §7

Proteus vulgaris (OX-19) = test: as above; assay type: cell-based; conditions: 18 h, read-out: Minimum growth inhibitory concentration (MIC)
Method: as §1, §2, §3, §4, §5, §6, §7

[10] = system: Pseudomonas aeruginosa (395); test: as above; assay type: cell-based; conditions: HIA medium plate, 37° C., 18 hours, read-out: Minimum growth inhibitory concentration (MIC)
Method: as §1, §2, §3, §4, §5, §6, §7

[11] = system: Pseudomonas aeruginosa (718); test: as above; assay type: cell-based; conditions: HIA medium plate, 37° C., 18 hours, read-out: Minimum growth inhibitory concentration (MIC)
Method: as §1, §2, §3, §4, §5, §6, §7

[12] = system: Pseudomonas aeruginosa (ATCC 10145); test: as above; assay type: cell-based; conditions: ATCC10145, HIA medium plate, 37° C., 18 hours, read-out: Minimum growth inhibitory concentration (MIC)
Method: as §1, §2, §3, §4, §5, §6, §7

[13] = system: Pseudomonas aeruginosa (F1629); test: as above; assay type: cell-based; conditions: HIA medium plate, 37° C., 18 hours, read-out: Minimum growth inhibitory concentration (MIC)
Method: as §1, §2, §3, §4, §5, §6, §7

[14] = system: Pseudomonas aeruginosa (IFO-3901); test: as above; assay type: cell-based; conditions: IFO3901, HIA medium plate, 37° C., 18 hours, read-out: Minimum growth inhibitory concentration (MIC)
Method: as §1, §2, §3, §4, §5, §6, §7

[15] = system: Pseudomonas aeruginosa (NCTC 7244); test: as above; assay type: cell-based; conditions: NCTC7244, HIA medium plate, 37° C., 18 hours, read-out: Minimum growth inhibitory concentration (MIC)
Method: as §1, §2, §3, §4, §5, §6, §7

[16] = system: Pseudomonas aeruginosa (S-1); test: as above; assay type: cell-based; conditions: HIA medium plate, 37° C., 18 hours, read-out: Minimum growth inhibitory concentration (MIC)
Method: as §1, §2, §3, §4, §5, §6, §7

[17] = system: Pseudomonas maltophilia (F-6257); test: as above; assay type: cell-based; conditions: Stenotrophomonas maltophilia; HIA medium plate, 37° C., 18 hours; read-out: Minimum growth inhibitory concentration (MIC)
Method: as §1, §2, §3, §4, §5, §6, §7

[18] = system: Salmonella enteritidis (KB-21); test: as above; assay type: cell-based; conditions: Salmonella enterica, 18 h, read-out: Minimum growth inhibitory concentration (MIC)
Method: as §1, §2, §3, §4, §5, §6, §7

[19] = system: Serratia marcescens (S-33); test: as above; assay type: cell-based; conditions: HIA medium plate, 37° C., 18 hours, read-out: Minimum growth inhibitory concentration (MIC)
Method: as §1, §2, §3, §4, §5, §6, §7

Shigella flexneri (K-A) = test: as above; assay type: cell-based; conditions: HIA medium plate, 37° C., 18 hours, read-out: Minimum growth inhibitory concentration (MIC)
Method: as §1, §2, §3, §4, §5, §6, §7

[20] = system: Staphylococcus aureus (FDA 209P); test: as above; assay type: cell-based; conditions: FDA209P, HIA medium plate, 37° C., 18 hours, read-out: Minimum growth inhibitory concentration (MIC)
Method: as §1, §2, §3, §4, §5, §6, §7

[21] = system: Staphylococcus aureus (Y-8); test: as above; assay type: cell-based; conditions: HIA medium plate, 37° C., 18 hours, read-out: Minimum growth inhibitory concentration (MIC)
Method: as §1, §2, §3, §4, §5, §6, §7

[22] = system: Streptococcus faecalis (Hoshi); test: as above; assay type: cell-based; conditions: Enterococcus faecalis; HIA medium plate, 37° C., 18 hours; read-out: Minimum growth inhibitory concentration (MIC)
Method: as §1, §2, §3, §4, §5, §6, §7

[23] = system: Pseudomonas aeruginosa (NCTC 7244); test: MIC in HIB medium by turbidity (Referential Example 2, Table 2); assay type: cell-based; conditions: NCTC7244, 18 h, 37° C.
Method: (§8) The compounds obtained in Synthesis Examples 1 to 4 were tested in the following manner.
(§9) A suspension of Pseudomonas aeruginosa (NCTC 7244) cultivated at 37° C. for 18 hours in a heart infusion broth medium (HIB medium) in a final amount of 10^5, 10^6 and 10^7 cells/ml in an HIB medium containing each of the test compounds which was obtained in the same way as in Referential Example 1 except that the maximum concentration of the test compound was 200 μg/ml. The bacterial strain was cultivated at 37° C. for 18 hours, and the turbidity of the culture broth was evaluated with the naked eye. The minimum concentration of the test compound at which no turbidity was noted was defined as MIC.

[24] = system: Pseudomonas aeruginosa (NCTC 7244); test: Minimum bactericidal concentration (Referential Example 2, Table 2); assay type: cell-based; conditions: NCTC7244, 18 h, subculture on HIA medium
Method: as §8, §9
The growth of the bacterial strain was evaluated.

Pseudomonas aeruginosa = conditions: background art, in words; cited from earlier work
[25] = system: Gram-positive or Gram-negative bacteria; conditions: background art, in words; cited from earlier work

Cc1nnc(SCC2=C(C(=O)O)N3C(=O)[C@@H](NC(=O)Cn4cnnn4)[C@H]3SC2)s1 [CEZ, sodium 7-[1-(1H)-tetrazoylacetamido]-3-[2-(5-methyl-1,3,4thiadiazoyl)-thiomethyl]-Δ^3-cephem-4-carboxylate]
MIC [1]: 100 µg/mL | MIC [2]: 50 µg/mL | MIC [3]: 3.13 µg/mL | MIC [4]: > 100 µg/mL | MIC [5]: 6.25 µg/mL | MIC (Escherichia coli (26RO3)): 50 µg/mL | MIC (Escherichia coli (K-12)): 3.13 µg/mL | MIC (Escherichia coli (NIHJ)): 3.13 µg/mL | MIC [6]: 3.13 µg/mL | MIC [7]: 1.56 µg/mL | MIC [8]: 3.13 µg/mL | MIC [9]: 3.13 µg/mL | MIC (Proteus morganii (C-39)): > 100 µg/mL | MIC (Proteus rettgeri (T-2)): 12.5 µg/mL | MIC (Proteus vulgaris (OX-19)): 1.56 µg/mL | MIC [10]: > 100 µg/mL | MIC [11]: > 100 µg/mL | MIC [12]: > 100 µg/mL | MIC [13]: > 100 µg/mL | MIC [14]: > 100 µg/mL | MIC [15]: > 100 µg/mL | MIC [16]: > 100 µg/mL | MIC [17]: > 100 µg/mL | MIC [18]: 1.56 µg/mL | MIC [19]: > 100 µg/mL | MIC (Shigella flexneri (K-A)): 1.56 µg/mL | MIC [20]: 0.2 µg/mL | MIC [21]: 0.78 µg/mL | MIC [22]: 25 µg/mL | MIC ([23]; 10^5 cells/ml inoculated): > 200 µg/mL | MIC ([23]; 10^6 cells/ml inoculated): > 200 µg/mL | MIC ([23]; 10^7 cells/ml inoculated): > 200 µg/mL | MBC ([24]; 10^5 cells/ml inoculated): > 200 µg/mL | MBC ([24]; 10^6 cells/ml inoculated): > 200 µg/mL | MBC ([24]; 10^7 cells/ml inoculated): > 200 µg/mL | effectiveness for infections caused by Pseudomonas aeruginosa (Pseudomonas aeruginosa): ineffective for infections caused by Pseudomonas aeruginosa | effectiveness for infections caused by Gram-positive or Gram-negative bacteria [25]: effective as therapeutic agents for infections caused by Gram-positive or Gram-negative bacteria
